These results are taken from article PMC9143228, “Evaluation of 3-Borono-L-Phenylalanine as a Water-Soluble Boron Neutron Capture Therapy Agent” (Pharmaceutics, 2022).

Broadly, the logP is the decadic logarithm of the partition coefficient of the neutral form, usually between octanol and water. The low end stands for a more hydrophilic compound, the high end for a more lipophilic compound.

The nature of series [1]: Water solubility (boron in supernatant by ICP-MS). It is filed as physicochemical. Particulars: for solubility at 24 h: 25 °C, 24 h stirring, n = 6. The protocol: 3-BPA or 4-BPA (40 mg) were suspended in 200 μL water and stirred at 25 °C for 24 h. After stirring, the solution was centrifuged at 5000 rpm for 10 min, and the amount of boron in the supernatant solution was measured by 8800 triple quadrupole ICP-MS (Agilent, Santa Clara, CA, USA). The experiment was repeated twice with n = 3.

For series [2] the following is noted: cited from earlier work.
A short description of series [3]: Log p measurement (water/1-octanol, ICP-MS). It is filed as physicochemical. Particulars: v/v); water:1-octanol 1:1, n = 12. The protocol:
After dissolving 3-BPA or 4-BPA in water (0.2 mg/mL), 1-octanol was added to compose a water:1-octanol (1:1, v/v) mixture. The mixture was shaken for 5 min and then centrifuged at 5000 rpm for 10 min. The amount of boron was measured for each liquid phase using ICP-MS, and log p was calculated from the concentration ratio of each liquid phase. The experiment was repeated twice with n = 6.

Series [4] relates to T3M-4 human pancreatic adenocarcinoma cells. Kind of series: Cellular uptake study, T3M-4. It is filed as cell-based. Particulars: for Boron uptake, specific (LAT1-specific): difference non-inhibitor minus inhibitor; for Boron uptake, non-inhibitor: no inhibitor, mixed with fructose; for Boron uptake, inhibitor: with 10 µM LAT1 inhibitor JPH203. As to the method: (§1) B16F10 mouse melanoma cells (RCB2630) and T3M-4 human pancreatic adenocarcinoma cells (RCB1021) were provided by the RIKEN BRC (Ibaraki, Japan). U-87MG human glioblastoma cells were provided by Prof. Magata (Hamamatsu University School of Medicine, Hamamatsu, Japan), and A549 human lung carcinoma cells (CCL-185) were obtained from ATCC (Manassas, VA, USA). Cells were cultured in growth medium RPMI 1640 for B16F10 and T3M-4 and DMEM for A549 and U-87MG, containing 10% fetal bovine serum at 37 °C in a humidified atmosphere of 5% CO2.
(§2) Cells were cultured in six-well plates 2 days before the experiment. After medium removal, cells were washed twice with choline buffer (140 mM choline chloride, 2 mM potassium chloride, 1 mM magnesium chloride, 1 mM calcium chloride, 1 M Tris) and preincubated with 900 µL of choline buffer containing/not containing 10 µM of the LAT1-specific inhibitor JPH203 [32, 33] (Selleck Biotech, Tokyo, Japan) at 37 °C for 5 min. After incubation, 100 µL of 3-BPA or 4-BPA mixed with fructose (0.5 mg/mL, 0.11 w/v% Fru, pH 7.4) was added and incubated at 37 °C for 1, 5, and 30 min. After washing three times with choline buffer, 400 µL of 0.2 M NaOH was added to lyse the cells. After the amount of cell protein was measured using the BCA method (Thermo Fisher Scientific, Tokyo, Japan) and the mixture was ashed with nitric acid, the amount of boron was measured using ICP-MS. The accumulation rate was calculated as % dose/mg protein from the quantified dose of boron in added 3-BPA and 4-BPA, respectively (n = 3).

Series [5] relates to A549 human lung carcinoma cells. Kind of series: Cellular uptake study, A549. It is filed as cell-based. Particulars: for Boron uptake, specific (LAT1-specific): difference non-inhibitor minus inhibitor; for Boron uptake, non-inhibitor: no inhibitor, mixed with fructose; for Boron uptake, inhibitor: with 10 µM LAT1 inhibitor JPH203. As to the method:
as §1, §2

Series [6] concerns B16F10 mouse melanoma cells. Kind of series: Cellular uptake study, B16F10. Conditions: for Boron uptake, specific (LAT1-specific): difference non-inhibitor minus inhibitor; for Boron uptake, non-inhibitor: no inhibitor, mixed with fructose; for Boron uptake, inhibitor: with 10 µM LAT1 inhibitor JPH203. It is filed as cell-based. The protocol: as §1, §2
The subject of series [7] is U-87MG human glioblastoma cells. Kind of series: Cellular uptake study, U-87MG. Particulars: for Boron uptake, specific (LAT1-specific): difference non-inhibitor minus inhibitor; for Boron uptake, non-inhibitor: no inhibitor, mixed with fructose; for Boron uptake, inhibitor: with 10 µM LAT1 inhibitor JPH203. It is filed as cell-based. As to the method:
as §1, §2

On the set-up of series [8]: method as in doi:10.1007/978-1-4757-9567-7_10. Particulars: cited from earlier work.

In brackets after ≈: the same amount, converted by molar mass.

In the case of `NC(Cc1cccc(O)c1)C(=O)O` (racemic) [meta-Tyrosine, DL-meta-tyrosine], in series [1] (in water, 25°C, n = 3, Table S8), the “Solubility (g/L) (in water, 25°C, n = 3)” value is reported as 9.8 ± 0.1 g/L (≈ 54.1 mM). Also, the “Water solubility of DL-meta-tyrosine relative to DL-tyrosine” value in series [1] (times higher than DL-tyrosine) was “more than 25 times”.

Regarding `N[C@@H](Cc1ccccc1)C(=O)O` [phenylalanine], the solubility in series [1] (in water, 25°C, n = 3, Table S8, read-out: Solubility (g/L) (in water, 25°C, n = 3)) worked out at 15.3 ± 0.1 g/L (≈ 92.6 mM). For the same compound, in series [2], the water solubility is 12.0 mg/mL (≈ 72.6 mM).

The compound `N[C@@H](Cc1cccc(B(O)O)c1)C(=O)O` [3-BPA, 3-borono-L-phenylalanine] came in with a solubility at 24 h in series [1] (in water) of 125 mg/mL (≈ 598 mM). Also, the “Water solubility of 3-BPA relative to 4-BPA” value in series [1] (times higher than 4-BPA) is “more than 100 times”. In series [3], this compound gave a logP of -1.59. The “Boron uptake, specific (LAT1-specific)” value in series [4] (T3M-4, 1 min) was 0.69 ± 0.09 % dose/mg protein; in series [4] (T3M-4, 5 min) it was 3.55 ± 0.40 % dose/mg protein; in series [4] (T3M-4, 30 min) it was 5.41 ± 0.63 % dose/mg protein; in series [5] (A549, 1 min) it was 0.30 ± 0.12 % dose/mg protein; in series [5] (A549, 5 min), 0.94 ± 0.40 % dose/mg protein; in series [5] (A549, 30 min), 3.60 ± 0.24 % dose/mg protein. The “Boron uptake, specific (LAT1-specific)” value is 0.03 ± 0.03 % dose/mg protein in series [6] (B16F10, 1 min); 0.42 ± 0.11 % dose/mg protein in series [6] (B16F10, 5 min); 0.56 ± 0.07 % dose/mg protein in series [6] (B16F10, 30 min); 0.02 ± 0.04 % dose/mg protein in series [7] (1 min); 0.15 ± 0.04 % dose/mg protein in series [7] (5 min); 0.21 ± 0.05 % dose/mg protein in series [7] (30 min). The “Boron uptake, non-inhibitor” value in series [4] (T3M-4, 1 min) is listed as 0.78 ± 0.09 % dose/mg protein; in series [4] (T3M-4, 5 min) it was 3.55 ± 0.40 % dose/mg protein; in series [4] (T3M-4, 30 min) it was 5.62 ± 0.63 % dose/mg protein; in series [5] (A549, 1 min), 0.48 ± 0.12 % dose/mg protein; in series [5] (A549, 5 min) it was 1.22 ± 0.13 % dose/mg protein; in series [5] (A549, 30 min) it was 4.02 ± 0.24 % dose/mg protein. The “Boron uptake, non-inhibitor” value in series [6] (B16F10, 1 min) is reported as 0.23 ± 0.03 % dose/mg protein; in series [6] (B16F10, 5 min), 0.59 ± 0.11 % dose/mg protein; in series [6] (B16F10, 30 min), 0.80 ± 0.07 % dose/mg protein; in series [7] (1 min), 0.33 ± 0.04 % dose/mg protein; in series [7] (5 min) it was 0.28 ± 0.04 % dose/mg protein; in series [7] (30 min), 0.45 ± 0.05 % dose/mg protein. The “Boron uptake, inhibitor” value was 0.09 ± 0.08 % dose/mg protein in series [4] (T3M-4, 1 min); 0.09 ± 0.07 % dose/mg protein in series [4] (T3M-4, 5 min); 0.21 ± 0.06 % dose/mg protein in series [4] (T3M-4, 30 min); 0.18 ± 0.03 % dose/mg protein in series [5] (A549, 1 min); 0.29 ± 0.02 % dose/mg protein in series [5] (A549, 5 min); 0.42 ± 0.01 % dose/mg protein in series [5] (A549, 30 min). The “Boron uptake, inhibitor” value came to 0.21 ± 0.06 % dose/mg protein in series [6] (B16F10, 1 min); 0.17 ± 0.11 % dose/mg protein in series [6] (B16F10, 5 min); 0.24 ± 0.01 % dose/mg protein in series [6] (B16F10, 30 min); 0.31 ± 0.05 % dose/mg protein in series [7] (1 min); 0.14 ± 0.05 % dose/mg protein in series [7] (5 min); 0.24 ± 0.04 % dose/mg protein in series [7] (30 min). Besides, the pKa1 in series [8] is on record as 2.26. Moreover, the pKa2 in series [8] is reported as 8.46. In addition, in series [8], the pKa3 is reported as 9.95.

With `N[C@@H](Cc1ccc(B(O)O)cc1)C(=O)O` [4-BPA, 4-borono-L-phenylalanine], the solubility at 24 h in series [1] (in water) came to 0.72 ± 0.13 mg/mL (≈ 3.44 mM). In addition, the logP in series [3] is -1.8 ± 0.04. The “Boron uptake, specific (LAT1-specific)” value in series [4] (T3M-4, 1 min) is on record as 0.56 ± 0.11 % dose/mg protein; in series [4] (T3M-4, 5 min) it was 3.10 ± 0.39 % dose/mg protein; in series [4] (T3M-4, 30 min), 5.19 ± 0.45 % dose/mg protein; in series [5] (A549, 1 min) it was 0.13 ± 0.04 % dose/mg protein; in series [5] (A549, 5 min) it was 0.66 ± 0.08 % dose/mg protein; in series [5] (A549, 30 min), 3.75 ± 0.20 % dose/mg protein. Further, the “Boron uptake, specific (LAT1-specific)” value in series [6] (B16F10, 1 min) is on record as 0.03 ± 0.01 % dose/mg protein; in series [6] (B16F10, 5 min) it was 0.48 ± 0.01 % dose/mg protein; in series [6] (B16F10, 30 min), 0.56 ± 0.06 % dose/mg protein; in series [7] (1 min) it was 0.05 ± 0.02 % dose/mg protein; in series [7] (5 min), 0.06 ± 0.02 % dose/mg protein; in series [7] (30 min), 0.31 ± 0.03 % dose/mg protein. The “Boron uptake, non-inhibitor” value in series [4] (T3M-4, 1 min) worked out at 0.82 ± 0.11 % dose/mg protein; in series [4] (T3M-4, 5 min), 3.28 ± 0.39 % dose/mg protein; in series [4] (T3M-4, 30 min), 5.40 ± 0.45 % dose/mg protein; in series [5] (A549, 1 min) it was 0.14 ± 0.04 % dose/mg protein; in series [5] (A549, 5 min) it was 0.66 ± 0.08 % dose/mg protein; in series [5] (A549, 30 min), 3.92 ± 0.20 % dose/mg protein. Also, the “Boron uptake, non-inhibitor” value in series [6] (B16F10, 1 min) stood at 0.03 ± 0.01 % dose/mg protein; in series [6] (B16F10, 5 min) it was 0.62 ± 0.01 % dose/mg protein; in series [6] (B16F10, 30 min) it was 0.57 ± 0.06 % dose/mg protein; in series [7] (1 min), 0.13 ± 0.02 % dose/mg protein; in series [7] (5 min), 0.20 ± 0.02 % dose/mg protein; in series [7] (30 min), 0.48 ± 0.03 % dose/mg protein. For the same compound, the “Boron uptake, inhibitor” value in series [4] (T3M-4, 1 min) is recorded as 0.26 ± 0.16 % dose/mg protein; in series [4] (T3M-4, 5 min), 0.18 ± 0.02 % dose/mg protein; in series [4] (T3M-4, 30 min) it was 0.20 ± 0.01 % dose/mg protein; in series [5] (A549, 1 min), 0.01 ± 0.01 % dose/mg protein; in series [5] (A549, 5 min) it was 0.00 ± 0.01 % dose/mg protein; in series [5] (A549, 30 min), 0.17 ± 0.09 % dose/mg protein. In addition, the “Boron uptake, inhibitor” value in series [6] (B16F10, 1 min) amounted to 0.00 ± 0.01 % dose/mg protein; in series [6] (B16F10, 5 min), 0.14 ± 0.03 % dose/mg protein; in series [6] (B16F10, 30 min), 0.01 ± 0.01 % dose/mg protein; in series [7] (1 min), 0.08 ± 0.01 % dose/mg protein; in series [7] (5 min), 0.14 ± 0.02 % dose/mg protein; in series [7] (30 min), 0.17 ± 0.01 % dose/mg protein. In addition, in series [8], the pKa1 is 2.35. In series [8], the pKa2 is 8.45. In series [8], the pKa3 is recorded as 9.67. Also, the “Water solubility under neutral conditions” value in series [2] (neutral conditions, ref Borofalan interview form) is 0.6 to 0.7 mg/mL.
